Experimental data as given in patent US5571942A, “Ring-substituted 2-amino-1,2,3,4-tetrahydronaphthalenes and 3-aminochromanes” (Eli Lilly and Company, priority 1995, dated 1996).

Tests used:
Parameters in all cases: species or system rat (male Sprague-Dawley)
[1] = target: T1, 5-HT1A receptors (Rattus norvegicus, UniProt P19327); assay: in vivo lowering of brain 5-HIAA levels (5-HT1A agonist activity); details: one hour after treatment
T1 construct: from tissue; host or cells: cerebral cortex (crude synaptosomal membranes) of male Sprague-Dawley rats
T1 sequence (P19327 1-422): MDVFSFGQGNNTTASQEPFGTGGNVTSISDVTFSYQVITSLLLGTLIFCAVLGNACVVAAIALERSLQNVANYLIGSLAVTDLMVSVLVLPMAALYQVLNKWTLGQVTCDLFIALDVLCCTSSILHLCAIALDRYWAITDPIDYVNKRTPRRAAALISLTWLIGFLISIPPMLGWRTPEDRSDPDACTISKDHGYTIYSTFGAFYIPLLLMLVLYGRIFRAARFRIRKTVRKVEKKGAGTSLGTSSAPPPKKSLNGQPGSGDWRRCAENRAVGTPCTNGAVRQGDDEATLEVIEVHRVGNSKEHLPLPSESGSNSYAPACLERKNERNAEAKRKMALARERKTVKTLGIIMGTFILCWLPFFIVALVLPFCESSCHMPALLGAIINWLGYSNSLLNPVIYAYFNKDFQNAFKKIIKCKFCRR
Protocol: (§1) Compounds of this invention were also examined for their in vivo effects on brain 5-HIAA and serum corticosterone levels. Male Sprague-Dawley rats weighting 150-200 g were administered subcutaneously or orally with aqueous solutions of the test compound. One hour after treatment, the rats were decapitated and trunk blood collected. The blood was allowed to clot and then was centrifuged to separate the serum. The concentration of corticosterone in the serum was determined by the spectrofluorometric method of Solem, J. H.; Brinck-Johnsen, T., Scand. J. Clin. Invest. [Suppl. 80], 17, 1 (1965). The whole brains from the decapitated rats were quickly removed, frozen on dry ice, and stored at -15° C. 5-HIAA concentrations were measured by liquid chromatography with electrochemical detection as described by Fuller, R. W.; Snoddy, H. D.; Perry, K. W., Life Sci. 40, 1921 (1987).
(§2) The results provided in columns 3-5 are indicative of 5-HT1A agonist activity.

[2] = target: T1, 5-HT1A receptors; assay: in vitro binding: inhibition of 3H-8-OH-DPAT binding to synaptosomal membranes from rat cerebral cortex; details: 3H-8-OH-DPAT 2 nM, 37° C., 10 min, pH 7.4
Text: Sites specifically labeled by tritiated 8-hydroxy-2-dipropylamino-1,2,3,4-tetrahydronaphthalene (^3 H-8-OH-DPAT) have been identified as 5-HT1A receptors. This general procedure is set forth in Wong et al., J. Neural Transm. 71:207-218 (1988).
Male Sprague-Dawley rats (110-150 g) from Harlan Industries (Cumberland, Ind.) were fed a Purina Chow ad libitum for at least 3 days before being used in the studies. Rats were killed by decapitation. The brains were rapidly removed, and the cerebral cortices were dissected out at 4° C.
Brain tissues were homogenized in 0.32M sucrose. After centrifugation at 1000×g for 10 min and then at 17000×g for 20 min, a crude synaptosomal fraction was sedimented. The pellet was suspended in 100 vol of 50 mM Tris-HCl, pH 7.4, incubated at 37° C. for 10 min, and centrifuged at 50000×g for 10 min. The process was repeated and the final pellet was suspended in ice-chilled 50 mM Tris-HCl, pH 7.4.
Binding of ^3 H-8-OH-DPAT was performed according to the previously described method [Wong et al., J. Neural Transm. 64:251-269 (1985)]. Briefly, synaptosomal membranes isolated from cerebral cortex were incubated at 37° C. for 10 min. in 2 ml of 50 mM Tris-HCl, pH 7.4; 10 mM pargyline; 0.6 mM ascorbic acid; 5 mM CaCl2; 2 nM ^3 H-8-OH-DPAT and 0.1 to 1000 nm of the compound of interest. Binding was terminated by filtering samples under reduced pressure through glass fiber (GFB) filters. The filters were washed twice with 5 ml of ice cold buffer and placed in scintillation vials with 10 ml of PCS (Amersham/Searle) scintillation fluid. Radioactivity was measured with a liquid scintillation spectrometer. Unlabeled 8-OH-DPAT at 10 μM was also included in separate samples to establish non-specific binding. Specific binding of ^3 H-8-OH-DPAT is defined as the difference of radioactivity bound in the absence and in the presence of 10 μM unlabeled 8-OH-DPAT.
as §2

[3] = target: T1, 5-HT1A receptors; assay: in vivo elevation of serum corticosterone levels (5-HT1A agonist activity); details: sc, one hour after treatment
Protocol: as §1, §2

CCCN(CCC)C1CCc2cccc(-c3cccnc3)c2C1 (stereo not shown) [Example 14, 2-Di-n-propylamino-8-(pyrid-3-yl)-1,2,3,4-tetrahydronaphthalene]
5-HIAA MED (minimum effective dose lowering brain 5-HIAA levels) ([1]; sc): > 1.0 mg/kg | IC50 [2]: 7.2 nM | Corticosterone MED (minimum effective dose elevating serum corticosterone levels) [3]: > 1.0 mg/kg

CCCN(CCC)C1CCc2cccc(-c3ccccn3)c2C1 (stereo not shown) [Example 15, 2 -Di-n-propylamino-8-(pyrid-2-yl)-1,2,3,4-tetrahydronaphthalene]
IC50 [2]: 33 nM

CCCN(CCC)C1CCc2cccc(-c3ccnc(N)n3)c2C1 (stereo not shown) [Example 32, 2-Di-n-propylamino-8-(2-aminopyrimidin-4-yl)-1,2,3,4-tetrahydronaphthalene]
IC50 [2]: 67 nM

CCCN(CCC)C1CCc2cccc(-c3ccncc3)c2C1 (stereo not shown) [Example 16, 2-Di-n-propylamino-8-(pyrid-4-yl)-1,2,3,4-tetrahydronaphthalene]
5-HIAA MED (minimum effective dose lowering brain 5-HIAA levels) ([1]; sc): > 1.0 mg/kg | IC50 [2]: 9.8 nM | Corticosterone MED (minimum effective dose elevating serum corticosterone levels) [3]: > 1.0 mg/kg

CCCN(CCC)C1CCc2cccc(-c3ccon3)c2C1 (stereo not shown) [Example 25]
5-HIAA MED (minimum effective dose lowering brain 5-HIAA levels) ([1]; po): 10 mg/kg | 5-HIAA MED (minimum effective dose lowering brain 5-HIAA levels) ([1]; sc): 0.3 mg/kg | IC50 [2]: 1.4 nM | Corticosterone MED (minimum effective dose elevating serum corticosterone levels) [3]: 0.3 mg/kg

CCCN(CCC)C1CCc2cccc(-c3nocc3C)c2C1 (stereo not shown) [Example 26, 2-Di-n-propylamino-8-(4-methylisoxazol-3-yl)-1,2,3,4-tetrahydronaphthalene]
5-HIAA MED (minimum effective dose lowering brain 5-HIAA levels) ([1]; sc): 1.0 mg/kg | IC50 [2]: 6.4 nM | Corticosterone MED (minimum effective dose elevating serum corticosterone levels) [3]: > 1.0 mg/kg

CCCN(CCC)C1CCc2cccc(-c3nc(-c4ccccc4)no3)c2C1 (stereo not shown) [Example 34, 2-Di-n-propylamino-8-(3-phenyl-1,2,4-oxadiazol-5-yl)-1,2,3,4-tetrahydronaphthalene]
IC50 [2]: 11 nM

CCCN(CCC)C1CCc2cccc(-c3ccc4ccccc4n3)c2C1 (stereo not shown) [Example 12, 2-Di-n-propylamino-8-(quinol-2-yl)-1,2,3,4-tetrahydronaphthalene]
IC50 [2]: 87 nM

CCCN(CCC)C1CCc2cccc(-c3oncc3C)c2C1 (stereo not shown) [Example 21, 2-Di-n-propylamino-8-(4-methylisoxazol-5-yl)-1,2,3,4-tetrahydronaphthalene]
5-HIAA MED (minimum effective dose lowering brain 5-HIAA levels) ([1]; po): > 10 mg/kg | 5-HIAA MED (minimum effective dose lowering brain 5-HIAA levels) ([1]; sc): 0.3 mg/kg | Corticosterone MED (minimum effective dose elevating serum corticosterone levels) [3]: 1.0 mg/kg

CCCN(CCC)C1CCc2cccc(-c3cc[nH]n3)c2C1 (stereo not shown) [Example 33, 2-Di-n-propylamino-8-(pyrazol-3-yl)-1,2,3,4-tetrahydronaphthalene]
5-HIAA MED (minimum effective dose lowering brain 5-HIAA levels) ([1]; sc): > 1.0 mg/kg | IC50 [2]: 4.9 nM | Corticosterone MED (minimum effective dose elevating serum corticosterone levels) [3]: > 1.0 mg/kg

CCCN(CCC)C1CCc2cccc(-c3cnc4ccccc4c3)c2C1 (stereo not shown) [Example 13, 2-Di-n-propylamino-8-(quinol-3-yl)-1,2,3,4-tetrahydronaphthalene]
IC50 [2]: 16 nM

CCCN(CCC)C1CCc2cccc(-c3cc(O)[nH]n3)c2C1 (stereo not shown) [Example 6, 2-Di-n-propylamino-8-(5-hydroxypyrazol-3-yl)-1,2,3,4-tetrahydronaphthalene]
IC50 [2]: 62 nM

CCCN(CCC)C1CCc2cccc(-c3nc(C)no3)c2C1 (stereo not shown) [Example 35, 2-Di-n-propylamino-8-(3-methyl-1,2,4-oxidiazol-5-yl)-1,2,3,4-tetrahydronaphthalene]
IC50 [2]: 16 nM

CCCN(CCC)C1CCc2cccc(-c3ccn(C)n3)c2C1 (stereo not shown) [5 (3-yl), 2-Di-n-propylamino-8-(1-methylpyrazol-3-yl)-1,2,3,4-tetrahydronaphthalene]
5-HIAA MED (minimum effective dose lowering brain 5-HIAA levels) ([1]; sc): > 1.0 mg/kg | IC50 [2]: 5 nM | Corticosterone MED (minimum effective dose elevating serum corticosterone levels) [3]: 1.0 mg/kg

CCCN(CCC)C1CCc2cccc(-c3ccnn3C)c2C1 (stereo not shown) [5 (5-yl), 2-Di-n-propylamino-8-(1-methylpyrazol-5-yl)-1,2,3,4-tetrahydronaphthalene]
IC50 [2]: 7.2 nM

CCCN(CCC)C1CCc2cccc(-c3cc(Br)no3)c2C1 (stereo not shown) [Example 20, 2-Di-n-propylamino-8-(3-bromoisoxazol-5-yl)-1,2,3,4-tetrahydronaphthalene]
5-HIAA MED (minimum effective dose lowering brain 5-HIAA levels) ([1]; sc): > 1.0 mg/kg | Corticosterone MED (minimum effective dose elevating serum corticosterone levels) [3]: > 1.0 mg/kg

CCCN(CCC)C1CCc2cccc(-c3cscn3)c2C1 (stereo not shown) [Example 11, 2-Di-n-propylamino-8-(thiazol-4-yl)-1,2,3,4-tetrahydronaphthalene]
5-HIAA MED (minimum effective dose lowering brain 5-HIAA levels) ([1]; sc): > 1.0 mg/kg | IC50 [2]: 4.9 nM | Corticosterone MED (minimum effective dose elevating serum corticosterone levels) [3]: > 1.0 mg/kg

CCCN(CCC)C1CCc2cccc(-c3csc(N)n3)c2C1 (stereo not shown) [Example 10, 2-Di-n-propylamino-8-(2-aminothiazol-4-yl)-1,2,3,4-tetrahydronaphthalene]
IC50 [2]: 19 nM

CCCN(CCC)C1CCc2cccc(-c3oncc3OC)c2C1 (stereo not shown) [Example 31, 2-Di-n-propylamino-8-(4-methoxyisoxazol-5-yl)-1,2,3,4-tetrahydronaphthalene]
5-HIAA MED (minimum effective dose lowering brain 5-HIAA levels) ([1]; sc): 1.0 mg/kg | Corticosterone MED (minimum effective dose elevating serum corticosterone levels) [3]: > 1.0 mg/kg

CCCN(CCC)C1CCc2cccc(-c3noc(-c4ccccc4)n3)c2C1 (stereo not shown) [Example 2, 2-Di-n-propylamine-8-(5-phenyl-1,2,4-oxadiazol-3-yl)-1,2,3,4-tetrahydronaphthalene]
IC50 [2]: 36 nM

CCCN(CCC)C1CCc2cccc(-c3cc(C)on3)c2C1 (stereo not shown) [Example 28, 2-Di-n-propylamino-8-(5-methylisoxazol-3-yl)-1,2,3,4-tetrahydronaphthalene]
5-HIAA MED (minimum effective dose lowering brain 5-HIAA levels) ([1]; sc): > 1.0 mg/kg | IC50 [2]: 3.8 nM | Corticosterone MED (minimum effective dose elevating serum corticosterone levels) [3]: > 1.0 mg/kg

CCCN(CCC)C1CCc2cccc(-c3ccno3)c2C1 (stereo not shown) [Example 8, 2-Di-n-propylamino-8-(isoxazol-5-yl)-1,2,3,4-tetrahydronaphthalene]
5-HIAA MED (minimum effective dose lowering brain 5-HIAA levels) ([1]; po): 3 mg/kg | 5-HIAA MED (minimum effective dose lowering brain 5-HIAA levels) ([1]; sc): 0.1 mg/kg | Corticosterone MED (minimum effective dose elevating serum corticosterone levels) [3]: 0.3 mg/kg

CCCN(CCC)C1CCc2cccc(-c3nccs3)c2C1 (stereo not shown) [Example 9, 2-Di-n-propylamino-8-(thiazol-2-yl)-1,2,3,4-tetrahydronaphthalene]
5-HIAA MED (minimum effective dose lowering brain 5-HIAA levels) ([1]; sc): > 1.0 mg/kg | IC50 [2]: 12 nM | Corticosterone MED (minimum effective dose elevating serum corticosterone levels) [3]: > 1.0 mg/kg

CCCN(CCC)C1CCc2cccc(-c3cc(SC)no3)c2C1 (stereo not shown) [Example 30, 2-Di-n-propylamino-8-(3-methylthioisoxazol-5-yl)-1,2,3,4-tetrahydronaphthalene]
5-HIAA MED (minimum effective dose lowering brain 5-HIAA levels) ([1]; sc): > 1.0 mg/kg | Corticosterone MED (minimum effective dose elevating serum corticosterone levels) [3]: > 1.0 mg/kg

CCCN(CCC)C1CCc2cccc(-c3cc(C)no3)c2C1 (stereo not shown) [Example 23, 2-Di-n-propylamino-8-(3-methylisoxazol-5-yl)-1,2,3,4-tetrahydronaphthalene]
5-HIAA MED (minimum effective dose lowering brain 5-HIAA levels) ([1]; sc): 1.0 mg/kg | Corticosterone MED (minimum effective dose elevating serum corticosterone levels) [3]: > 1.0 mg/kg
